Measurements reported in ChEMBL document CHEMBL5331131, “Discovery of Acyl-Indole Derivatives as Pan-Serotype Dengue Virus NS4B Inhibitors” (J Med Chem, 2023).
pEC50: −log10 of the molar value.

Tested on: dengue virus type 2
Test: Antiviral activity against DENV-2 16681 expressing eGFP infected in african green monkey Vero cells incubated with cells for 24 hrs followed by viral infection measured after 3 days by laser microscopic analysis
Assay type: functional, organism-based
Conditions: Dengue virus, 16681, Vero
For `COc1cc(NC(C(=O)c2c[nH]c3c(Cl)c(OC)ccc23)c2ccc(F)cc2OC)cc(OCCO)c1` (centres undefined), the pEC50 was 9.00.
Molecule `COc1cc(NC(C(=O)c2c[nH]c3cc(OC)c(F)cc23)c2ccc(F)cc2OC)cc(OCCO)c1` (single isomer, unassigned; (+)) has a pEC50 of 8.30.
`COc1cc(NC(C(=O)c2c[nH]c3c(F)cc(C)cc23)c2ccc(F)cc2OC)cc(OCCO)c1` (single isomer, unassigned; (+)) showed a pEC50 of 8.30.
With `COc1cc(NC(C(=O)c2c[nH]c3cc(F)ccc23)c2ccc(F)cc2F)cc(OCCO)c1` (centres undefined) the pEC50 was 8.05.
`COc1cc(NC(C(=O)c2c[nH]c3cc(F)ccc23)c2ccc(F)cc2OC(F)(F)F)cc(OCCO)c1` (centres undefined) gave a pEC50 of 6.77.
In the case of `COc1cc(NC(C(=O)c2c[nH]c3cc(F)c(F)cc23)c2ccc(F)cc2OC)cc(OCCO)c1` (single isomer, unassigned; (+)), the pEC50 was 8.52.

Tested on: not listed separately
Test: Microsomal stability in mouse liver microsomes assessed as intrinsic clearance preincubated for 5 mins followed by NADPH addition measured upto 60 mins by LC-MS/MS analysis
Assay type: ADME, Microsome
Conditions: time < 65 min, read-out: CLH
`COc1cc(NC(C(=O)c2c[nH]c3c(Cl)c(OC)ccc23)c2ccc(F)cc2OC)cc(OCCO)c1` (centres undefined) gave a microsomal CLint of 9 µL/min/mg.
Work on `COc1cc(NC(C(=O)c2c[nH]c3cc(OC)c(F)cc23)c2ccc(F)cc2OC)cc(OCCO)c1` (single isomer, unassigned; (+)) yielded a microsomal CLint of less than 8 µL/min/mg.
For `COc1cc(NC(C(=O)c2c[nH]c3c(F)cc(C)cc23)c2ccc(F)cc2OC)cc(OCCO)c1` (single isomer, unassigned; (+)), the microsomal CLint was 10 µL/min/mg.
In the case of `COc1cc(NC(C(=O)c2c[nH]c3cc(F)c(F)cc23)c2ccc(F)cc2OC)cc(OCCO)c1` (single isomer, unassigned; (+)), the microsomal CLint was 10 µL/min/mg.

Tested on: not listed separately
Test: Microsomal stability in human liver microsomes assessed as intrinsic clearance preincubated for 5 mins followed by NADPH addition measured upto 60 mins by LC-MS/MS analysis
Assay type: ADME, Microsome
Conditions: time < 65 min, read-out: CLH
`COc1cc(NC(C(=O)c2c[nH]c3c(Cl)c(OC)ccc23)c2ccc(F)cc2OC)cc(OCCO)c1` (centres undefined) showed a microsomal CLint of less than 8 µL/min/mg.
For `COc1cc(NC(C(=O)c2c[nH]c3cc(OC)c(F)cc23)c2ccc(F)cc2OC)cc(OCCO)c1` (single isomer, unassigned; (+)), the microsomal CLint was less than 8 µL/min/mg.
Molecule `COc1cc(NC(C(=O)c2c[nH]c3c(F)cc(C)cc23)c2ccc(F)cc2OC)cc(OCCO)c1` (single isomer, unassigned; (+)) has a microsomal CLint of 10 µL/min/mg.
`COc1cc(NC(C(=O)c2c[nH]c3cc(F)c(F)cc23)c2ccc(F)cc2OC)cc(OCCO)c1` (single isomer, unassigned; (+)) gave a microsomal CLint of less than 8 µL/min/mg.

Tested on: not listed separately
Test: Cytotoxicity against african green monkey Vero cells by ATPlite cell viability luminescence assay
Assay type: toxicity, cell-based
Conditions: chlorocebus sabaeus
`COc1cc(NC(C(=O)c2c[nH]c3c(Cl)c(OC)ccc23)c2ccc(F)cc2OC)cc(OCCO)c1` (centres undefined) showed a CC50 of 8.6 µM.
`COc1cc(NC(C(=O)c2c[nH]c3cc(OC)c(F)cc23)c2ccc(F)cc2OC)cc(OCCO)c1` (single isomer, unassigned; (+)) gave a CC50 greater than 8.6 µM.
With `COc1cc(NC(C(=O)c2c[nH]c3c(F)cc(C)cc23)c2ccc(F)cc2OC)cc(OCCO)c1` (single isomer, unassigned; (+)) the CC50 was 5.5 µM.
With `COc1cc(NC(C(=O)c2c[nH]c3cc(F)ccc23)c2ccc(F)cc2F)cc(OCCO)c1` (centres undefined) the CC50 was 13 µM.
Work on `COc1cc(NC(C(=O)c2c[nH]c3cc(F)ccc23)c2ccc(F)cc2OC(F)(F)F)cc(OCCO)c1` (centres undefined) yielded a CC50 of 7.8 µM.
For `COc1cc(NC(C(=O)c2c[nH]c3cc(F)c(F)cc23)c2ccc(F)cc2OC)cc(OCCO)c1` (single isomer, unassigned; (+)), the CC50 was 6.9 µM.

Tested on: not listed separately
Test: Microsomal stability in rat liver microsomes assessed as intrinsic clearance preincubated for 5 mins followed by NADPH addition measured upto 60 mins by LC-MS/MS analysis
Assay type: ADME, Microsome
Conditions: time < 65 min, read-out: CLH
With `COc1cc(NC(C(=O)c2c[nH]c3c(Cl)c(OC)ccc23)c2ccc(F)cc2OC)cc(OCCO)c1` (centres undefined) the microsomal CLint was 37 µL/min/mg.
Work on `COc1cc(NC(C(=O)c2c[nH]c3cc(OC)c(F)cc23)c2ccc(F)cc2OC)cc(OCCO)c1` (single isomer, unassigned; (+)) yielded a microsomal CLint of less than 8 µL/min/mg.
`COc1cc(NC(C(=O)c2c[nH]c3c(F)cc(C)cc23)c2ccc(F)cc2OC)cc(OCCO)c1` (single isomer, unassigned; (+)) gave a microsomal CLint of 13 µL/min/mg.
Molecule `COc1cc(NC(C(=O)c2c[nH]c3cc(F)c(F)cc23)c2ccc(F)cc2OC)cc(OCCO)c1` (single isomer, unassigned; (+)) has a microsomal CLint of 44 µL/min/mg.
